The text below walks through data of patent publication US9387199B2, “Compositions and methods for treating clostridium infection and preventing recurrence of infection” (priority 2013, dated 2016).

A value given as a limit tells only on which side of the number the result lay.

For one data set, the system named is C. difficile. The settings on record: with drug use; cited from earlier work.
The test system of data set [1] is C. difficile VPI 10463. Briefly: Murine model of C. difficile infection and treatment (clinical score, survival, relapse), Example 1. The settings on record: for deaths prevented during the acute infection period: untreated infected survival 38%.
For data set [2], the system named is C. difficile VPI 10463. Briefly: Histopathology scoring of cecal and colonic tissues in the murine CDI model. Type of data set: in vivo, C57BL/6 mice.
Data set [3] has as its system C. difficile VPI 10463. Briefly: Cecal clostridial (tcdB qPCR) and toxin (TcdA/TcdB ELISA) burden in the murine CDI model. Type of data set: in vivo, C57BL/6 mice. On the procedure:
Food and water were allowed ad libitum. […] Stool specimens were collected daily.
Genomic DNA was extracted from the stool or cecal samples using a modified protocol for the QIAamp DNA stool minikits (Qiagen). Stool lysis buffer (400 μl) was added to a frozen stool sample-diluent (from enzyme-linked immunosorbent assay [ELISA]) mixture. Samples were then vortexed for 15 s and incubated at 82.5° C. for 5 min. The samples were vortexed for another 15 s and then centrifuged at 14,000 rpm for 2 min. The supernatant was added to a clean 1.5-ml microcentrifuge tube. Thirty microliters of proteinase K was added to the wall of each tube, followed by 400 μl of lysis buffer. Samples were vortexed for 15 s and then incubated at 70° C. for 10 min. After incubation, 400 μl of 100% ethanol was added to each sample and then mixed by vortexing. A total of 650 μl of the sample was then added to a spin column provided in the kit and centrifuged at 14,000 rpm for 1 min. The remaining volume of each sample was then added to the spin column and centrifuged under the same conditions. The samples were washed first with 500 μl of AW1 buffer and centrifuged at 14,000 rpm for 1 min and then with 500 μl of AW2 buffer and centrifuged at 14,000 rpm for 3 min. The DNA was eluted by adding 200 μl of elution buffer to the spin column and then centrifuging at 14,000 rpm for 1 min.
In general terms: Real-time PCR tracks product formation cycle by cycle.

The test system of another data set is IgG. Also noted: species or system mice. The settings on record: mouse, in vivo.
The conditions of data set [4]: uninfected mice, 5-day course of drug alone.
Another data set has as its system C. difficile NAP1/BI/027. The settings on record: infections due to NAP1/BI/027, treated subjects; cited from earlier work.
The mark [5] stands for this setting: second week postinoculation, infected control 2.7±0.9, uninfected 1.6±0.26.
Where [6] appears, read: 20 mg/kg oral gavage daily for 5 days.
Where [7] appears, read: first week after infection, 20 mg/kg oral gavage daily for 5 days, infected controls 5.7±0.9.

As for `Cc1ncc([N+](=O)[O-])n1CCO` [metronidazole], the recurrence rate with C. difficile is at most 50%. For the same compound, the “infected mice that relapsed” value with C. difficile VPI 10463 [1] (20 mg/kg/day for 5 days) is given as “none”. Besides, the “weight loss or diarrhea while on antibiotics” value with C. difficile VPI 10463 [1] (20 mg/kg/day for 5 days, infected mice) was “had diarrhea and weight loss during treatment”. Besides, the “mice that died of infection during treatment” value in the data set with C. difficile VPI 10463 [1] (20 mg/kg/day for 5 days, 6 mice per group) is given as “one mouse”.

For `CC(=O)Oc1ccccc1C(=O)Nc1ncc([N+](=O)[O-])s1` [nitazoxanide], the histopathology score in the data set on C. difficile VPI 10463 [2] (first week postinoculation, 20 mg/kg daily, untreated infected 12.5±0.7, max score 15) is recorded as 11.53±0.9; in the data set with C. difficile VPI 10463 [2] (setting [5]) it was 4.2±0.6. The “deaths prevented during the acute infection period” value in the data set on C. difficile VPI 10463 [1] (setting [6]) is given as 60%. In addition, the mean clinical score in the data set with C. difficile VPI 10463 [1] (setting [7]) turned out to be 5±1. The “additional deaths in post-acute infection period” value with C. difficile VPI 10463 [1] (second week postinfection, 20 mg/kg daily for 5 days) is “no additional deaths were noted”.

As to `CNC(CC(C)C)C(=O)NC1C(=O)NC(CC(N)=O)C(=O)NC2C(=O)NC3C(=O)NC(C(=O)NC(C(=O)O)c4cc(O)cc(O)c4-c4cc3ccc4O)C(O)c3ccc(c(Cl)c3)Oc3cc2cc(c3OC2OC(CO)C(O)C(O)C2OC2CC(C)(N)C(O)C(C)O2)Oc2ccc(cc2Cl)C1O` (stereo not drawn) [vancomycin], the histopathology score in the data set with C. difficile VPI 10463 [2] (at the peak of infection (day 3), uninfected control 2.2±1) was found to be 4.5±1.6; in the data set on C. difficile VPI 10463 [2] (setting [5]), 9.3±0.9. In addition, in the data set on C. difficile VPI 10463 [3] (day 3 (peak of infection)), the “C. difficile DNA (tcdB) and toxin levels in cecal specimens” value is “low”. The “clostridial burden in cecal specimens” value in the data set with C. difficile VPI 10463 [3] (day 6 (1 day after antibiotic was discontinued), persisted on days 9 and 12) is “increased clostridial burden”. Besides, the “IgG levels, low dose versus high dose” value in the data set with IgG is given as “higher IgG levels”. In addition, the “weight loss or increase in disease score” value in data set [4] is “did not show weight loss or an increase in disease score”. Moreover, the rate of recurrence in the data set with C. difficile NAP1/BI/027 is given as 23.6%. In the data set on C. difficile VPI 10463 [1] (setting [6]), the “deaths prevented during the acute infection period” value was 100%. Besides, in the data set with C. difficile VPI 10463 [1] (20 mg/kg/day for 5 or 10 days, both treatment groups), the “clinical score until recurrence of disease” value is below 1. For the same compound, the “infected mice that relapsed” value with C. difficile VPI 10463 [1] (20 mg/kg/day for 5 days) amounted to 67%. In addition, the “mortality rate, 10-day versus 5-day course” value in the data set on C. difficile VPI 10463 [1] (20 mg/kg/day for 10 days) is listed as “higher mortality rate”. Besides, the “time from end of treatment to relapse” value in the data set with C. difficile VPI 10463 [1] (20 mg/kg/day, 5-day treatment course) turned out to be 4 days. In addition, the “time from discontinuation to relapse” value with C. difficile VPI 10463 [1] (20 mg/kg/day, 10-day treatment course) turned out to be 3 days. Besides, the “weight loss and clinical outcomes by duration of treatment” value in the data set on C. difficile VPI 10463 [1] (50 mg for 1 day only, versus 2, 3, 5 days) is “least weight loss and best clinical outcomes”. The compound further displayed an overall mortality rate in the data set with C. difficile VPI 10463 [1] (50 mg given for 5 days, infected controls 75%) of 100%. Also, the deaths in the data set on C. difficile VPI 10463 [1] (by day 9 and onwards, after 5-day treatment at 20 mg/kg) was determined as 62%. Also, the mean clinical score in the data set with C. difficile VPI 10463 [1] (setting [7]) came out at 1.7±0.3; in the data set with C. difficile VPI 10463 [1] (second week postinfection, 20 mg/kg daily for 5 days, surviving untreated infected mice 2.6) it was 6.2±0.2.
